In one experiment the test system is NK Falkone corn seeds. Nature of the experiment: Corn seed germination under cold stress (15° C.). The class given is in vivo. The settings on record: for change in vivo at 50 µM: rate 50 μM; for change in vivo at 250 µM: rate 250 μM. The method, then:
The effect of compounds of Formula (I) on the germination of NK Falkone corn seeds under cold stress was evaluated as follows.
NK Falkone corn seeds were sorted by size using 2 sieves, one excluding very big seeds and the other with round holes of 8 to 9 mm diameter. The seeds retained by the latter sieve are used for the germination test.
The corn seeds were placed in 24 well plates (each plate is considered as one experimental unit or replicate). Germination is initiated by the addition of 250 μl of distilled water containing 0.5% DMSO per well as a mean for compound solubilization. 8 replicates (ie, 8 plates) were used for each treatment characterization. Plates were sealed using seal foil (Polyolefin Art. Nr. 900320) from HJ-BIOANALYTIK. All plates were placed horizontally on trolleys in a climatic chamber at 15° C. or 23° C. in complete darkness. The experiment is laid out in a completely randomized design in climatic chamber with 75% Relative Humidity. Foils are pierced, one hole per well using a syringe after 72 hours for experiments performed at 15° C. and after 24 hours for experiments performed at 23° C.
Germination is followed over time by taking photographs at different time points. Image analysis is done automatically with a macro developed using the Image J software. A dynamic analysis of germination is carried out by fitting a logistic curve to the relationship between % germination and time for each plate (T50 parameter).
T50 is the time needed for half the seed population to be germinated. A negative value of T50 represents a faster germination rate. The mean of T50 parameters is calculated for the 8 replicates and the kinetic parameter is determined for each germination curve. Data in bold indicate germination enhancing statistically significant differences between treated seeds and control (empty vehicle treated) T50 values (P<0.05) as outlined in Table 7.

Experiment [1] deals with Orobanche cumana Wallr. seeds. The experiment is described as follows: Orobanche seed germination. The settings on record: preconditioned O. cumana seeds, 10 days at 20° C. in the dark, N = 5 × 100 seeds, control (0.01% DMSO) 0.75% germination. The class given is in vivo. The method, then: The effect of the compounds of Formula (I) on the germination of Orobanche cumana Wallr. seeds was evaluated on glass fibre filter paper (GFFP) in petri dishes. Seeds were pre-conditioned at moisture and suitable temperature to become responsive to the specific chemical germination stimulants.
Test compounds were dissolved in DMSO (10 000 mgl^−1) and stored at room temperature in a desiccator with desiccants. The stock solutions were dissolved with sterile deionised water to the appropriate final test concentration.
Seeds of O. cumana race ‘F’ were collected from sunflower fields in Manzanilla (Seville, Spain) in 2008 (seed lot IN153) and stored at room temperature. To separate seeds from heavy organic debris, a modified sucrose floatation technique as described by Hartman & Tanimonure (Plant Disease (1991), 75, 494) was applied. Seeds were filled into a separation funnel and stirred in water. When seeds floated to the surface, the water fraction containing heavy debris was discarded. Seeds were re-suspended in 2.5 M sucrose solution (specific gravity of 1.20) and heavy debris was allowed to settle down for 60 minutes. After removing debris, seeds were disinfected in 1% sodium hypochlorite solution and 0.025% (v/v) Tween 20 for 2 minutes. The seeds were decanted onto two layers of cheese cloth, rinsed with sterile deionised water and re-suspended in sterile deionised water. 2 mL of the seed suspension containing approximately 150 to 400 seeds was spread evenly on two layers of sterile glass fiber filter paper disc ([…]) in Petri dishes ( ? 9 cm). After wetting the discs with 3 mL sterile deionised water, petri dishes were sealed with parafilm. Seeds were incubated for 10 days at 20° C. in the dark for seed conditioning. The upper disc with conditioned seeds was briefly dried, transferred to a petri dish lined with a dry GFFP disc, and wetted with 6 mL of the appropriate test solution. The compounds of Formula (I) were tested at concentrations of 0.01, 0.1, and 1 mg/L. The strigolactone analogue GR24 (commercially available as a mixture of isomers) was included as positive control and 0.01% DMSO as negative control. All treatments were tested in five replicates. Seeds were re-incubated at 20° C. in the dark and examined for germination 10 days later.
The radicles of germinated seeds were stained for 5 minutes with blue ink (PELIKAN #4001, Germany) in 5% acetic acid according to Long et al (Seed Science Research (2008), 18, 125). After staining, seeds were photographed using a camera stand mounted with a digital SLR camera (Canon EOS 5D). Germination of 100 seeds per replicate was evaluated on digital images. Seeds were considered germinated when the radicle protruded from the seed coat.

Setting [2] is: Zea mays, rate 2 μM, 15° C., negative value = faster germination, control 0.5% DMSO in water, read-out: T50 (% vs control).
The mark [3] stands for this setting: Zea mays, rate 10 μM, 15° C., negative value = faster germination, control 0.5% DMSO in water, read-out: T50 (% vs control).
The mark [4] stands for this setting: Zea mays, 15° C., negative value = faster germination, control 0.5% DMSO in water, read-out: T50 (% vs control).
[5] abbreviates: Zea mays, rate 1 μM, 15° C., negative value = faster germination, control 0.5% DMSO in water, read-out: T50 (% vs control).
The mark [6] stands for this setting: Zea mays, rate 5 μM, 15° C., negative value = faster germination, control 0.5% DMSO in water, read-out: T50 (% vs control).
[7] abbreviates: Zea mays, rate 25 μM, 15° C., negative value = faster germination, control 0.5% DMSO in water, read-out: T50 (% vs control).
[8] abbreviates: Zea mays, read-out: T50 (% vs control).

The structures appear in SMILES notation. Where two headings read alike, the source gives them in different places.

Turning to `CC1=C[C@H](O/C=C2/C(=O)O[C@@H]3c4ccccc4C[C@H]23)OC1=O` [GR-24, reference compound], the “T50 (% vs control)” value is reported as 0.1 % vs control with NK Falkone corn seeds (rate 0.08 μM, 15° C., negative value = faster germination, control 0.5% DMSO in water); −2 % vs control in the experiment on NK Falkone corn seeds (rate 0.4 μM, 15° C., negative value = faster germination, control 0.5% DMSO in water); −0.6 % vs control with NK Falkone corn seeds (rate 2 μM, 15° C., negative value = faster germination, control 0.5% DMSO in water); −2.4 % vs control in the experiment on NK Falkone corn seeds (rate 10 μM, 15° C., negative value = faster germination, control 0.5% DMSO in water).

Take `CC1=CC(O/C=C2/C(=O)N(C(=O)OC(C)(C)C)C3c4ccccc4CC23)N(CC(F)(F)F)C1=O` (centres unmarked) [Ia-7, tert-butyl (3E)-3-[(4-methyl-5-oxo-1-(2,2,2-trifluoroethyl)-2H-pyrrol-2-yl)oxymethylene]-2-oxo-4,8b-dihydro-3aH-indeno[1,2-b]pyrrole-1-carboxylate]: the figures for the “Germination (%)” value in experiment [1] (0.01 mg/L) and in experiment [1] (0.1 mg/L) were 34% and 8%, respectively.

As to `CC1=CC(O/C=C2/C(=O)NC3c4ccccc4CC23)N(c2ccccc2)C1=O` (centres unmarked) [Ib-2, (3E)-3-[(4-methyl-5-oxo-1-phenyl-2H-pyrrol-2-yl)oxymethylene]-1,3a,4,8b-tetrahydroindeno[1,2-b]pyrrol-2-one], the change in vivo at 0.4 µM with NK Falkone corn seeds (Zea mays, rate 0.4 μM, 15° C., negative value = faster germination, control 0.5% DMSO in water, read-out: T50 (% vs control)) was -0.4%. The change in vivo at 2 µM in the experiment on NK Falkone corn seeds (setting [2]) is -2.5%. Besides, the change in vivo at 10 µM with NK Falkone corn seeds (setting [3]) was -6.1%. In addition, in the experiment on NK Falkone corn seeds (setting [4]), the change in vivo at 50 µM was -6.2%.

With `CON1C(=O)C(C)=CC1O/C=C1/C(=O)NC2c3ccccc3CC12` (centres unmarked) [Ib-3, (3E)-3-[(4-methyl-5-oxo-1-methoxy-2H-pyrrol-2-yl)oxymethylene]-1,3a,4,8b-tetrahydroindeno[1,2-b]pyrrol-2-one], the change in vivo at 2 µM in the experiment on NK Falkone corn seeds (setting [2]) was -4%. In addition, the change in vivo at 10 µM with NK Falkone corn seeds (setting [3]) worked out at 3.4%. Also, in the experiment on NK Falkone corn seeds (setting [4]), the change in vivo at 50 µM is -3.8% and the change in vivo at 250 µM was -5.5%.

For the compound `CC1=CC(O/C=C2/C(=O)NC3c4ccccc4CC23)N(C2CC2)C1=O` (centres unmarked) [Ib-5, (3E)-3-[(4-methyl-5-oxo-1-cyclopropyl-2H-pyrrol-2-yl)oxymethylene]-1,3a,4,8b-tetrahydroindeno[1,2-b]pyrrol-2-one], the “Germination (%)” value is recorded as 68% in experiment [1] (0.01 mg/L) and 73% in experiment [1] (0.1 mg/L). Besides, the change in vivo at 2 µM in the experiment with NK Falkone corn seeds (setting [2]) is -0.8%. In addition, the change in vivo at 10 µM with NK Falkone corn seeds (setting [3]) is -4.3%. Moreover, the change in vivo at 50 µM in the experiment with NK Falkone corn seeds (setting [4]) was -3.9%. Besides, the change in vivo at 250 µM in the experiment with NK Falkone corn seeds (setting [4]) was -5.8%.

Turning to `CC1=CC(O/C=C2/C(=O)NC3c4ccccc4CC23)N(CC(F)(F)F)C1=O` (centres unmarked) [Ib-7, (3E)-3-[(4-methyl-5-oxo-1-(2,2,2-trifluoroethyl)-2H-pyrrol-2-yl)oxymethylene]-1,3a,4,8b-tetrahydroindeno[1,2-b]pyrrol-2-one], in experiment [1] (0.01 mg/L), the “Germination (%)” value is 46%. Further, in experiment [1] (0.1 mg/L), the “Germination (%)” value was found to be 26%. For the same compound, the change in vivo at 2 µM in the experiment with NK Falkone corn seeds (setting [2]) worked out at 1.5%. Moreover, the change in vivo at 10 µM in the experiment with NK Falkone corn seeds (setting [3]) is -3%. In the experiment on NK Falkone corn seeds (setting [4]), the change in vivo at 50 µM was -3.3% and the change in vivo at 250 µM is -4.5%.

As to `CC1=CC(O/C=C2/C(=O)NC3c4ccccc4CC23)N(c2ccc(F)cc2)C1=O` (centres unmarked) [Ib-8, (3E)-3-[(4-methyl-5-oxo-1-(4-fluoro-phenyl)-2H-pyrrol-2-yl)oxymethylene]-1,3a,4,8b-tetrahydroindeno[1,2-b]pyrrol-2-one], the change in vivo at 1 µM in the experiment with NK Falkone corn seeds (setting [5]) was -2.6%. In addition, the change in vivo at 5 µM in the experiment on NK Falkone corn seeds (setting [6]) was -2.8%. The change in vivo at 25 µM with NK Falkone corn seeds (setting [7]) worked out at 2%. In addition, the change in vivo at 125 µM in the experiment on NK Falkone corn seeds (Zea mays, rate 125 μM, 15° C., negative value = faster germination, control 0.5% DMSO in water, read-out: T50 (% vs control)) was -2.3%.

Consider `CC1=CC(O/C=C2/C(=O)NC3c4ccccc4CC23)N(c2cccc(F)c2)C1=O` (centres unmarked) [Ib-9, (3E)-3-[(4-methyl-5-oxo-1-(3-fluoro-phenyl)-2H-pyrrol-2-yl)oxymethylene]-1,3a,4,8b-tetrahydroindeno[1,2-b]pyrrol-2-one], for which the change in vivo at 0.2 µM in the experiment on NK Falkone corn seeds (Zea mays, rate 0.2 μM, 15° C., negative value = faster germination, control 0.5% DMSO in water, read-out: T50 (% vs control)) was -0.8%. Moreover, the change in vivo at 1 µM in the experiment on NK Falkone corn seeds (setting [5]) is -4.8%. Also, in the experiment on NK Falkone corn seeds (setting [6]), the change in vivo at 5 µM was -5.6%. Further, the change in vivo at 25 µM in the experiment with NK Falkone corn seeds (setting [7]) was -5.2%.

For the compound `CC1=CC(O/C=C2/C(=O)NC3c4ccccc4CC23)N(c2cc(C(F)(F)F)cc(C(F)(F)F)c2)C1=O` (centres unmarked) [Ib-13, (3E)-3-[(4-methyl-5-oxo-1-(3,5-bistrifluoromethyl-phenyl)-2H-pyrrol-2-yl)oxymethylene]-1,3a,4,8b-tetrahydroindeno[1,2-b]pyrrol-2-one], in the experiment on NK Falkone corn seeds (setting [8]), the change in vivo at 0.2 µM was 1%, the change in vivo at 1 µM was -3.6%, the change in vivo at 5 µM is -3.6% and the change in vivo at 25 µM was -2.7%.

Source of the values: patent US9751867B2 (Syngenta Participations AG, priority 2014, dated 2017).
